What was measured:
[1] = in vivo; cited from earlier work
SARS-COV = format: cell-based; conditions: plaque assay, 24 hpi
WT SARS-COV-2 = assay: Golden Syrian hamster model of WT SARS-COV-2 infection; format: in vivo; conditions: 4 dpi
MERS-COV = format: cell-based; conditions: plaque assay
plasma proteins = conditions: over a wide range of blood concentrations; cited from earlier work
SARS-COV-2 = conditions: hES-CMs, 0.1 MOI, 24 hpi, 50 uM Propranolol

In the case of `CC(C)NCC(O)COc1cccc2ccccc12` (stereo not drawn) [Propranolol, 1-(isopropylamino)-3-(1-naphthyloxy)-2-propanol], the elimination half-life [1] is given as “approximately 8 hours”, the “number of infectious viruses (viral plaques)” value (SARS-COV) is given as “effectively reduced” and the “viral nucleocapsid protein expression in bronchiolar and alveolar epithelia” value (WT SARS-COV-2; hamster lung, immunofluorescence staining) is given as “significantly reduced”. The “WT SARS-COV-2 genome copies in lung tissues” value (WT SARS-COV-2; hamster, 40 mg/kg intraperitoneal from 6 hpi, 4 doses, RT-qPCR, vs mock-treated, p<0.05) was “decreased”, the “infectious virus titer in lung tissues” value (WT SARS-COV-2; hamster, 40 mg/kg intraperitoneal from 6 hpi, 4 doses, plaque assay, vs mock-treated, p<0.01) was “decreased” and the “number of infectious viruses (viral plaques)” value (MERS-COV) was “effectively reduced”. For the same compound, the “bound to plasma proteins” value (plasma proteins) was “more than 90%”, the “intracellular SARS-COV-2 viral load” value (SARS-COV-2; cell lysate) was “remarkably diminished” and the “extracellular SARS-COV-2 viral load” value (SARS-COV-2; cell supernatant) was “remarkably diminished”.
